Data taken from patent US20230077723A1, “N-SUBSTITUTED-3,4-(FUSED 5-RING)-5-PHENYL-PYRROLIDINE-2-ONE COMPOUNDS AS INHIBITORS OF ISOQC AND/OR QC ENZYME” (Scenic Immunology B.V., priority 2019, published 2023).

What was measured:
human isoQC (S53-L382) [1] = target: T1, human isoQC (S53-L382) (Homo sapiens, UniProt Q9NXS2); experiment: Assay 1 - isoQC inhibition, fluorescent enzymatic assay (single concentration); assay type: biochemical; conditions: isoQC inhibition at 250 nM test compound; read-out: isoQc Inh. Assay No. 1
T1 construct: enzymatically active region of human isoQC (S53-L382; see, e.g., Huang et al., 2011); GST-Enterokinase site (N, cleaved yes); made in house; host or cells: E. coli
T1 sequence (Q9NXS2 53-382): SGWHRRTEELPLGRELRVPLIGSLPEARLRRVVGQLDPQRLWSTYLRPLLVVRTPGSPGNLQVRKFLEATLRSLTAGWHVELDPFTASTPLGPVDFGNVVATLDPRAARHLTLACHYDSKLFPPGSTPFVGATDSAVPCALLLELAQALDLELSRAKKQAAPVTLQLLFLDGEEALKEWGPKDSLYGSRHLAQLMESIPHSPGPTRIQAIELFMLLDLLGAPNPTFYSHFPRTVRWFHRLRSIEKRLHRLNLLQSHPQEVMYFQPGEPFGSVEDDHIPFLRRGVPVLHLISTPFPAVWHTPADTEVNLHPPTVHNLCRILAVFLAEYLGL
Description: Initially, isoQC inhibitory activity was measured at a single concentration in a fluorescent-based assay (Assay 1 below). In order to establish the inhibitory activity more quantitatively, IC50 values were obtained using a mass spectrometry-based assay where pyroglutamylation by either isoQC or QC was measured (Assays 2 and 4, respectively, below). Alternatively, IC50 values for isoQC or QC were obtained using a fluorescence-based assay (Assays 3 and 5 respectively, below).
(§1) The Golgi luminal, enzymatically active region of human isoQC (S53-L382; see, e.g., Huang et al., 2011) was obtained by expression in E. coli of an N-terminally GST-Enterokinase and C-terminally 6×His tagged construct in the pET41(+) vector and subsequent purification using talon beads and GST beads, enterokinase digestion and further purification with a final formulation in 25 mM Tris pH 8.0/150 mM NaCl/1 mM TCEP. Absence of pyroglutamylating activity in an enzymatic dead variant that was cloned, expressed, and purified in parallel ruled out that the purification strategy isolates any endogenously present pyroglutamylating activity.
Pyroglutamylation was measured by conversion of glutamine-4-amino-7-methylcoumarine (H-Gln-AMC, Bachem) to pyroglutamyl-AMC, which is subsequently a specific substrate for pyroglutamylaminopeptidase (pGAPase, Qiagen), releasing free AMC which can be fluorescently detected. For a typical inhibition assay, 15 μL 20 μM h-Gln-AMC (diluted from a 40 mM stock dissolved in 25 mM HEPES using 50 mM Tris-HCl pH 8.0) was pipetted into a 96-well plate on ice. Next, 7.5 μL 1 μM test compound (diluted from a 10 mM stock dissolved in DMSO using 50 mM Tris-HCl) was added. Finally, 7.5 μL, 3 ng/μL recombinant isoQC enzyme was added and the reaction mixture was incubated for 1 hour at 37° C. A 5 minute incubation at 98° C. was then performed to denature the isoQC enzyme and stop the reaction.
To detect the amount of pyroglutamyl-AMC formed, a 96-well plate was prepared with 25 μL 0.125 U/mL pGAPase enzyme diluted in 50 mM Tris-HCl pH 8.0 containing 10 mM dithiothreitol (DTT). 25 μL of the pyroglutamylation reaction mixture was transferred into the plate containing the pGAPase solutions while on ice. Once done, the plate was moved over to a Spectramax ID3 fluorescent plate-reader to monitor and record the maximum fluorescence at 380 nm excitation/450 nm emission over a period of 20 minutes while keeping the temperature at 37° C.
DMSO concentrations during the assay never exceeded 1% and activities were compared to controls containing only the same amount of DMSO and no test compound. […] Test compounds were reported as active when <40% of background corrected signal was measured as compared to DMSO controls.

human isoQC (S53-L382) [2] = target: T1, human isoQC (S53-L382); experiment: Assay 2 - isoQC potency, mass spectrometry-based enzymatic potency assay; assay type: biochemical; conditions: mass spectrometry read-out, 7.5 nM isoQC, 10 μM H-Gln-AMC; read-out: isoQc Pot. Assay No. 2
Description: as §1
(§2) EC50's of test compounds were determined by incubating 11-point two-fold dilutions of test compound in 20 μL volumes in the presence of 7.5 nM isoQC and 10 μM H-Gln-AMC using 50 mM Tris-HCl pH 8.0 as assay buffer for 2 hours at room temperature before stopping the reaction by the addition of 2 volumes of methanol. Both the substrate and the product of this reaction were read out using an Agilent RapidFire microfluidic solid phase sample extraction system coupled to an AB Sciex API 4000 triple quadrupole mass spectrometer, in negative ion mode, at m/z of 301.9 and 284.9 respectively. The actual readout was defined as P/(S+P), where P is the product signal area and S the substrate signal area. EC50's were calculated by four parameter sigmoidal model fitting.

recombinant human QC = target: T2, recombinant human QC (Homo sapiens, UniProt Q16769); experiment: Assay 4 - QC potency, mass spectrometry-based enzymatic potency assay; assay type: biochemical; conditions: mass spectrometry read-out; read-out: QC Pot. Assay No. 4
T2 construct: His6 (N); purchased R&D Systems
T2 sequence (Q16769 29-361): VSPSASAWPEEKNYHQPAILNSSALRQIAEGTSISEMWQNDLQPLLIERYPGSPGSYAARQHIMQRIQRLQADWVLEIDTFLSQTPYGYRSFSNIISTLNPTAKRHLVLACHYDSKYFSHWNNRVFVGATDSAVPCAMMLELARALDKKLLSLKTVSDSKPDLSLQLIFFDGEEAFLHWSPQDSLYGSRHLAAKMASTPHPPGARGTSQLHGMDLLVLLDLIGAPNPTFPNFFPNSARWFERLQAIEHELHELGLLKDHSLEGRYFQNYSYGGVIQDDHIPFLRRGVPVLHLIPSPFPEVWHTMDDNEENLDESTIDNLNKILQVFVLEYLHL
Description: as §2
EC50's of test compounds were determined in the same way as described in Assay 2 above, except that N-terminally His6-tagged recombinant human QC (R&D Systems) was used instead of isoQC.

[3] = system: pyroglutamylated CD47 (pE-CD47) in KBM7 cells; experiment: Assay 6 - cell-based potency assay (pE-CD47 CC2C6 staining vs total CD47); design: species or system human; conditions: Homo sapiens, KBM-7, 72 h, CC2C6 signal, read-out: Cell Pot. Assay No. 6
Description: Cells were spun for 4 minutes at 1500 rpm and washed once with PBS/0.5% BSA. Cells were spun down again and the supernatant was removed and incubated in 100 uL antibody staining solution (PBS/0.5% BSA/0.1 μg/mL DAPI (4′,6-diamidino-2-phenylindole, ThermoFisher Scientific) and a mixture of 1:500 FITC-conjugated anti-human CD47 clone 2D3, which recognizes total CD47 irrespective of its pyroglutamylation state, and 1:500 Alexa647-conjugated anti-human CD47 clone CC2C6, which specifically detects pyroglutamylated CD47) for 2 hours at 4° C. Next, the cells were spun down and washed twice with 2×150 μL PBS/0.5% BSA to remove unbound antibody. Cells were again spun down and taken up in 300 μL FACS buffer before analysis on a Celesta FACS machine (BD Biosciences).
KBM7 cells (Kotecki et al., 1999) were infected with lentivirus produced by transfecting pSCNC-LentiCRISPR-QPCTL or pSCNC-LentiCRISPR-CD47 into HEK-293T cells according to standard protocols. After 24 hours incubation, cells were selected with puromycin (Invivogen, 1 μg/mL) for 48 hours. Cells were stained for total CD47 and pE-CD47 and QPCTL k.o. cells were sorted out as negative for pE-CD47, and CD47 k.o. cells as negative for total CD47, using a FACSAria III and FACS Diva software (BD Biosciences).
In order to test compounds for their effect on pyroglutamylation in live cells, 25000 KBM7 cells per well were seeded in a 96-well U-bottom plate in 150 μl IMDM/10% FCS/1% Pen/Strep medium and a 10-point 2-fold dilution range of test compounds. After 72 hours incubation at 37° C., 5% CO2, cells were stained for total CD47 and pE-CD47 and analyzed on a BD Celesta using FACS Diva software (BD Biosciences). Cells gated for DAPI negativity were recorded and the median fluorescence intensity (MFI) of each sample was transformed to linearly scale between the MFI's of wildtype and CD47 knockout cells (in case of the 2D3 antibody) and the wildtype and QPCTL knockout cells (in case of the CC2C6 antibody). IC50's were calculated by 3 parameter logistic regression of the CC2C6 signal vs. compound concentration, where the top of the sigmoidal curve was fixed at 1, using R and the drc package (http://www.r-project.org, https://cran.r-project.org/web/packages/drc/index.html).

Structure (SMILES) | inhibition at 0.25 µM (human isoQC (S53-L382) [1]) | IC50 (human isoQC (S53-L382) [2]) | IC50 (recombinant human QC) | IC50 [3]
CCCOc1ccc(C2c3c(nn(C)c3C)C(=O)N2c2ccc3[nH]cnc3c2)c(Cl)c1 (stereo not drawn) [FRPPO-004] | > 40% | < 0.025 µM | 0.025 to 0.1 µM | < 1 µM
Cc1c2c(nn1C)C(=O)N(c1ccc3[nH]cnc3c1)C2c1ccc(N2CCC(F)(F)C2)cc1F (stereo not drawn) [FRPPO-028A] | > 40% | < 0.025 µM | 0.025 to 0.1 µM | < 1 µM
CCCOc1ccc(C2c3c(nn(C4CC4)c3C)C(=O)N2c2ccc3[nH]cnc3c2)cc1 (stereo not drawn) [FRPPO-036] | > 40% | – | – | < 1 µM
Cc1c2c(nn1C)C(=O)N(c1ccc3[nH]cnc3c1)C2c1ccc(N2CCCCC2=O)cc1 (stereo not drawn) [FRPPO-017] | > 40% | 0.025 to 0.1 µM | 0.025 to 0.1 µM | ≥ 50 µM
CCCOc1ccc(C2c3c(C)nn(CC(F)(F)F)c3C(=O)N2c2ccc3[nH]cnc3c2)cc1 (stereo not drawn) [FRPPO-023] | ≤ 40% | – | – | 5 to 50 µM
Cc1c2c(nn1C)C(=O)N(c1ccc3[nH]cnc3c1)C2c1ccc(N2CCS(=O)(=O)CC2)cc1 (stereo not drawn) [FRPPO-027] | > 40% | < 0.025 µM | < 0.025 µM | 1 to 5 µM
CCCOc1ccc(C2c3c(nn(C)c3C3CC3)C(=O)N2c2ccc3[nH]cnc3c2)cc1 (stereo not drawn) [FRPPO-006] | > 40% | 0.025 to 0.1 µM | 0.1 to 5 µM | < 1 µM
CCCOc1ccc(C2c3c(nn(CC4CC4)c3C)C(=O)N2c2ccc3[nH]cnc3c2)cc1 (stereo not drawn) [FRPPO-034] | > 40% | 0.1 to 5 µM | 0.1 to 5 µM | 1 to 5 µM
Cc1c2c(nn1C)C(=O)N(c1ccc3[nH]cnc3c1)C2c1ccc2nsnc2c1 (stereo not drawn) [FRPPO-020] | > 40% | < 0.025 µM | 0.025 to 0.1 µM | 1 to 5 µM
CCCOc1ccc(C2c3c(nn(C)c3CC)C(=O)N2c2ccc3[nH]cnc3c2)cc1 (stereo not drawn) [FRPPO-007] | > 40% | 0.025 to 0.1 µM | 0.025 to 0.1 µM | < 1 µM
CCCOc1ccc(C2c3c(nn(C4CCOCC4)c3C)C(=O)N2c2ccc3[nH]cnc3c2)cc1 (stereo not drawn) [FRPPO-035] | > 40% | 0.1 to 5 µM | 0.1 to 5 µM | 1 to 5 µM
CCCOc1ccc(C2c3c(nn(CC(C)(C)F)c3C)C(=O)N2c2ccc3[nH]cnc3c2)cc1 (stereo not drawn) [FRPPO-038] | > 40% | – | – | 1 to 5 µM
CCCOc1ccc(C2c3c(nn(CC(F)F)c3C)C(=O)N2c2ccc3[nH]cnc3c2)cc1 (stereo not drawn) [FRPPO-032] | ≤ 40% | 0.1 to 5 µM | 0.1 to 5 µM | 1 to 5 µM
CCCOc1ccc(C2c3c(nn(COC)c3C)C(=O)N2c2ccc3[nH]cnc3c2)cc1 (stereo not drawn) [FRPPO-031] | > 40% | 0.025 to 0.1 µM | 0.1 to 5 µM | 1 to 5 µM
CCCOc1ccc(C2c3c(C)nn(C(C)C)c3C(=O)N2c2ccc3[nH]cnc3c2)cc1 (stereo not drawn) [FRPPO-021] | ≤ 40% | – | – | 5 to 50 µM
CCCOc1ccc(C2c3c(C)nn(C4CCC4)c3C(=O)N2c2ccc3[nH]cnc3c2)cc1 (stereo not drawn) [FRPPO-022] | ≤ 40% | – | – | 1 to 5 µM
